In the supplement of paper PMC8967900:

Tests used:
Assay in all cases: selective drug sensitivity score (sDSS, relative to normal bone marrow) (sDSS (score)); higher = more potent and effective on the cell line relative to normal bone marrow cells
Settings in all cases: 72 h
HPB-ALL = system: HPB-ALL
COG-LL-402h = system: COG-LL-402h
ALL-SIL = system: ALL-SIL
NALM-6 = system: NALM-6
NALM-16 = system: NALM-16
COG-LL-317 = system: COG-LL-317
PF-382 = system: PF-382
MHH-CALL-3 = system: MHH-CALL-3
COG-LL-319h = system: COG-LL-319h
380 = system: 380
TANOUE = system: TANOUE
COG-LL-394h = system: COG-LL-394h
REH = system: REH
KASUMI-10 = system: KASUMI-10
SEM cells = system: SEM cells
PEER = system: PEER
KASUMI-9 = system: KASUMI-9
RCH-ACV = system: RCH-ACV
JURKAT = system: JURKAT
MOLT-4 = system: MOLT-4
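Note: ALL cell lines in 384-well plates, five doses spanning 10,000-fold, each plate scaled between vehicle and 100 µmol/L benzalkonium chloride controls, sDSS an adapted area-under-curve metric.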

Row | Compound | selective drug sensitivity score (HPB-ALL) | selective drug sensitivity score (COG-LL-402h) | selective drug sensitivity score (ALL-SIL) | selective drug sensitivity score (NALM-6) | selective drug sensitivity score (NALM-16) | selective drug sensitivity score (COG-LL-317) | selective drug sensitivity score (PF-382) | selective drug sensitivity score (MHH-CALL-3) | selective drug sensitivity score (COG-LL-319h) | selective drug sensitivity score 380 | selective drug sensitivity score (TANOUE) | selective drug sensitivity score (COG-LL-394h) | selective drug sensitivity score (REH) | selective drug sensitivity score (KASUMI-10) | selective drug sensitivity score (SEM cells) | selective drug sensitivity score (PEER) | selective drug sensitivity score (KASUMI-9) | selective drug sensitivity score (RCH-ACV) | selective drug sensitivity score (JURKAT) | selective drug sensitivity score (MOLT-4)
1 | C[C@@H](Nc1cc(F)cc(F)c1)c1cc(C(=O)N(C)C)cc2c(=O)cc(N3CCOCC3)oc12 [AZD-8186] (top concentration 1000 nM) | 1.94 | 5.14 | -0.26 | 5.14 | -0.06 | -0.26 | 0.54 | 3.84 | 0.74 | 2.84 | -0.26 | -0.26 | 9.54 | -0.26 | 2.44 | -0.26 | 6.04 | 14.9 | -0.26 | -0.06
2 | COCC[n+]1c2c(n(Cc3cnccn3)c1C)C(=O)c1ccccc1C2=O [Sepantronium_bromide] (top concentration 10000 nM) | 6.34 | 22.8 | -3.26 | 22.3 | 22.2 | 13.3 | 14.1 | 22.3 | 4.64 | 22 | 14.7 | -11.7 | 17.8 | 18.6 | 13.3 | 15.1 | 16.2 | 17.9 | 14.2 | 15.9
3 | NC1(c2ccc(-c3nc4ccn5c(=O)[nH]nc5c4cc3-c3ccccc3)cc2)CCC1 [MK-2206] (top concentration 1000 nM) | 1.06 | 2.76 | 2.96 | 2.76 | 2.46 | 3.56 | 3.26 | 3.86 | 3.56 | 4.76 | -1.64 | -1.64 | 6.26 | -0.44 | 4.36 | -1.64 | 4.36 | 13.2 | -0.24 | 2.76
4 | C[C@H](Nc1ncnc2nc[nH]c12)c1cc2cccc(Cl)c2c(=O)n1-c1ccccc1 [Duvelisib] (top concentration 500 nM) | -0.94 | 4.96 | -0.94 | 4.36 | -0.94 | 1.96 | -0.94 | -0.14 | 3.56 | 1.46 | -0.94 | -0.84 | -0.94 | -0.94 | -0.54 | -0.94 | 3.36 | 21 | -0.94 | -0.94
5 | C[C@@]1(C(=O)Nc2ccc(F)nc2)CCCN1c1nc(Nc2cc(C3CC3)n[nH]2)c2cccn2n1 (top concentration 10000 nM) | 8.28 | 8.18 | 10.5 | 4.08 | 2.88 | 12.5 | 6.18 | 3.28 | 8.78 | 18.1 | -6.52 | 5.98 | 9.08 | 4.68 | 8.98 | 11.2 | 8.08 | 6.08 | -2.62 | 8.68
6 | C[C@@H]1COC(Nc2ccc3ncnc(Nc4ccc(OCc5nccs5)c(Cl)c4)c3c2)=N1 [Varlitinib] (top concentration 10000 nM) | 1.92 | -0.18 | 2.92 | -0.18 | 0.92 | -0.18 | -0.18 | -0.18 | 18.8 | 18.5 | -0.18 | -0.18 | 7.62 | -0.18 | 2.92 | 0.12 | 4.72 | 5.92 | -0.18 | -0.18
7 | O=C(CCCCCCNC(=O)c1cnc(N(c2ccccc2)c2ccccc2)nc1)NO [Rocilinostat] (top concentration 10000 nM) | 5.54 | 8.14 | 9.14 | 4.84 | 3.34 | 5.14 | 4.84 | 14.5 | 8.24 | 8.54 | -0.26 | 3.74 | 6.04 | 4.24 | 4.74 | 7.14 | 6.64 | 9.24 | 2.74 | 5.04
8 | CO[C@H]1C[C@@H]2CC[C@@H](C)[C@@](O)(O2)C(=O)C(=O)N2CCCC[C@H]2C(=O)O[C@H]([C@H](C)C[C@@H]2CC[C@@H](O)[C@H](OC)C2)CC(=O)[C@H](C)/C=C(\C)[C@@H](O)[C@@H](OC)C(=O)[C@H](C)C[C@H](C)/C=C/C=C/C=C/1C [Sirolimus] (top concentration 100 nM) | -2.46 | 0.04 | -0.86 | -2.86 | -2.26 | 0.74 | 1.84 | 5.74 | 5.94 | 17.4 | -3.76 | -3.76 | 0.54 | -3.76 | 1.34 | 3.74 | 4.74 | 11.1 | -1.96 | -2.46
9 | CC(C)(C)c1cc(NC(=O)Nc2ccc(Oc3ccnc4[nH]c(=O)cnc34)cc2F)n(-c2ccccc2)n1 (top concentration 25000 nM) | 1.12 | -1.78 | 16.1 | -0.98 | -2.78 | -2.18 | -3.88 | -3.58 | -1.08 | -4.68 | -5.68 | 0.82 | -0.78 | 5.62 | 11.4 | 5.32 | -1.18 | 3.82 | -1.48 | -2.98
10 | CCN(CC)CCNC(=O)c1c(C)[nH]c(/C=C2\C(=O)Nc3ccc(-c4csc(-c5ccccc5)n4)cc32)c1C [Amcasertib] (top concentration 10000 nM) | 4.3 | -3.2 | 3.6 | 0 | -2.1 | 7.7 | 2.7 | -3.2 | -0.1 | 7.8 | -2.6 | 1.3 | 3.6 | 5.2 | 3 | 4 | -0.2 | 3.3 | -2.2 | -2.4
11 | CC(=O)c1c(C)c2cnc(Nc3ccc(N4CCNCC4)cn3)nc2n(C2CCCC2)c1=O [Palbociclib] (top concentration 10000 nM) | 2.78 | 8.78 | -2.12 | 3.68 | 1.98 | 0.98 | 5.48 | 5.38 | 0.38 | -0.12 | -6.12 | -5.62 | 3.08 | 0.88 | 4.98 | 5.38 | 8.78 | 16.1 | 1.58 | 1.08
12 | CN(C(=O)c1ccc(F)cc1C(F)(F)F)C1CCN(c2nnc(-c3ccnn3C)c3ccccc23)CC1 [Taladegib] (top concentration 10000 nM) | 7.08 | -1.12 | 0.08 | 2.68 | 0.88 | -1.12 | 0.78 | -0.32 | 5.78 | 4.08 | 4.98 | 2.08 | 3.58 | -1.12 | -1.12 | 1.88 | -1.12 | -0.52 | 2.78 | -0.12
13 | CCN(CC)CCNC(=O)c1c(C)[nH]c(/C=C2\C(=O)Nc3ccc(F)cc32)c1C [Sunitinib] (top concentration 1000 nM) | -1.44 | -1.44 | 0.76 | -1.44 | -1.04 | -1.44 | -1.44 | -1.44 | -1.34 | -1.44 | -1.44 | -0.34 | -1.44 | 10.4 | 15.3 | -0.24 | 0.66 | 1.46 | -1.44 | -0.94
14 | Nc1ncnc2c1nc(N)n2[C@@H]1O[C@H](CO)[C@@H](O)[C@H]1O [8-amino-adenosine] (top concentration 50000 nM) | -3.82 | 5.78 | 2.68 | 6.68 | 4.48 | 3.28 | 0.18 | 5.38 | 6.78 | 9.38 | 0.98 | 6.58 | 2.88 | 3.28 | 5.08 | 5.98 | 7.08 | 6.68 | -5.42 | -2.52
15 | C#Cc1cccc(Nc2ncnc3cc(OCCOC)c(OCCOC)cc23)c1 [Erlotinib] (top concentration 10000 nM) | 0.66 | 4.06 | 5.36 | -1.24 | -1.24 | 0.16 | 0.46 | 1.66 | 16.2 | 2.36 | -1.24 | 2.66 | -0.84 | 4.06 | 1.86 | 5.16 | 3.26 | 4.26 | 2.26 | 1.56
16 | O=C(Nc1ccc2[nH]nc(-c3ccncc3)c2c1)[C@@H]1CCN(CC(=O)N2CCN(c3ccc(-c4ncccn4)cc3)CC2)C1 (top concentration 10000 nM) | -0.44 | 1.76 | 0.16 | 4.76 | -4.24 | -2.04 | 0.56 | 7.16 | 2.16 | 1.66 | -4.64 | -0.14 | 4.86 | -0.74 | -2.64 | 2.16 | 0.36 | -0.44 | -2.04 | -3.04
17 | C[C@@H]1COCCN1c1cc(C2([S@](C)(=N)=O)CC2)nc(-c2cc[nH]c3nccc2-3)n1 [AZD6738] (top concentration 25000 nM) | 7.38 | 7.68 | 8.88 | 7.28 | 0.68 | 16 | 4.68 | 12.2 | 15.6 | 19.5 | -6.12 | -2.72 | 13.1 | 8.08 | 17.2 | 5.88 | 8.38 | 15.9 | 3.88 | 8.78
18 | C=CC(=O)N1CC/C(=C\c2ccc(F)c([N+](=O)[O-])c2)C(=O)/C(=C/c2ccc(F)c([N+](=O)[O-])c2)C1 [VLX1570] (top concentration 10000 nM) | -1.22 | 5.28 | -3.62 | 4.08 | -3.72 | 2.78 | -1.72 | 5.98 | 2.08 | 6.88 | -6.32 | -1.92 | 1.98 | 1.58 | 3.38 | -4.72 | 0.88 | 1.58 | -8.52 | -5.62
